Test results reported in patent publication US9266871B2, “Trifluoromethyl-substituted fused pyrimidines and their use” (BAYER PHARMA AKTIENGESELLSCHAFT, priority 2013, dated 2016).

Test system: spontaneously hypertensive rats (SHR Okamoto)
Test: Radiotelemetric measurement of blood pressure on conscious spontaneously hypertensive rats
Type: in vivo, rat
From the text: B-3. Radiotelemetric Measurement of Blood Pressure on Conscious Spontaneously Hypertensive Rats
A commercially available telemetry system from DATA SCIENCES INTERNATIONAL DSI, USA, is employed for the blood pressure measurement on conscious rats described below.
The system consists of 3 main components: • implantable transmitters (Physiotel® telemetry transmitter) • receivers (Physiotel® receiver) which are linked via a multiplexer (DSI Data Exchange Matrix) to a • data acquisition computer.
The telemetry system makes it possible to continuously record blood pressure, heart rate and body motion of conscious animals in their usual habitat.
The investigations are carried out on adult female spontaneously hypertensive rats (SHR Okamoto) with a body weight of >200 g. SHR/NCrl from the Okamoto Kyoto School of Medicine, 1963 were a cross of male Wistar Kyoto rats with highly elevated blood pressure and female rats having a slightly elevated blood pressure and at F13 handed over to the U.S. National Institutes of Health.
Unless indicated otherwise, the substances to be investigated are administered orally by gavage in each case to a group of animals (n=6). The test substances are dissolved in suitable solvent mixtures, or suspended in 0.5% strength Tylose, appropriate for an administration volume of 2 ml/kg of body weight.
In the standard procedure, the following are measured for 10-second periods in each case: • systolic blood pressure (SBP) • diastolic blood pressure (DBP) • mean arterial pressure (MAP) • heart rate (HR) • activity (ACT).
The acquisition of measurements is repeated under computer control at 5-minute intervals. The source data obtained as absolute value are corrected in the diagram with the currently measured barometric pressure (Ambient Pressure Reference Monitor; APR-1) and stored as individual data. Further technical details are given in the extensive documentation from the manufacturing company (DSI).
Unless indicated otherwise, the test substances are administered at 9.00 am on the day of the experiment. Following the administration, the parameters described above are measured over 24 hours.
After the end of the experiment, the acquired individual data are sorted using the analysis software (DATAQUEST™ A.R.T.™ ANALYSIS). The blank value is assumed to be the time 2 hours before administration, and so the selected data set encompasses the period from 7.00 am on the day of the experiment to 9.00 am the following day.
The data are smoothed over a presettable time by determination of the average (30-minute average) and transferred as a text file to a storage medium. The measured values presorted and compressed in this way are transferred into Excel templates and tabulated. For each day of the experiment, the data obtained are stored in a dedicated file bearing the number of the experiment. Results and test protocols are filed sorted by numbers.

C[C@@]1(C(F)(F)F)C(=O)Nc2nc(-c3nn(Cc4ncccc4F)c4ncc(F)cc34)nc(NCCC(F)(F)F)c21 (single isomer, unassigned) [Example 1-1]
mean blood pressure (0.03 mg/kg, 0 hours after substance administration): 148.8 mmHg | mean blood pressure (0.03 mg/kg, 1 hours after substance administration): 133.5 mmHg | mean blood pressure (0.03 mg/kg, 2 hours after substance administration): 127.3 mmHg | mean blood pressure (0.03 mg/kg, 3 hours after substance administration): 128.8 mmHg | mean blood pressure (0.03 mg/kg, 4 hours after substance administration): 132.3 mmHg | mean blood pressure (0.03 mg/kg, 5 hours after substance administration): 126.0 mmHg | mean blood pressure (0.03 mg/kg, 6 hours after substance administration): 124.5 mmHg | mean blood pressure (0.03 mg/kg, 7 hours after substance administration): 138.8 mmHg | mean blood pressure (0.03 mg/kg, 8 hours after substance administration): 143.8 mmHg | mean blood pressure (0.03 mg/kg, 9 hours after substance administration): 136.5 mmHg | mean blood pressure (0.03 mg/kg, 10 hours after substance administration): 143.8 mmHg | mean blood pressure (0.03 mg/kg, 11 hours after substance administration): 141.7 mmHg | mean blood pressure (0.03 mg/kg, 12 hours after substance administration): 141.7 mmHg | mean blood pressure (0.03 mg/kg, 13 hours after substance administration): 150.5 mmHg | mean blood pressure (0.03 mg/kg, 14 hours after substance administration): 150.8 mmHg | mean blood pressure (0.03 mg/kg, 15 hours after substance administration): 153.8 mmHg | mean blood pressure (0.03 mg/kg, 16 hours after substance administration): 145.7 mmHg | mean blood pressure (0.03 mg/kg, 17 hours after substance administration): 155.3 mmHg | mean blood pressure (0.03 mg/kg, 18 hours after substance administration): 151.2 mmHg | mean blood pressure (0.03 mg/kg, 19 hours after substance administration): 146.3 mmHg | mean blood pressure (0.03 mg/kg, 20 hours after substance administration): 140.2 mmHg | mean blood pressure (0.03 mg/kg, 21 hours after substance administration): 142.2 mmHg | mean blood pressure (0.03 mg/kg, 22 hours after substance administration): 142.8 mmHg | mean blood pressure (0.03 mg/kg, 23 hours after substance administration): 143.0 mmHg | mean blood pressure (0.03 mg/kg, 24 hours after substance administration): 143.2 mmHg | mean blood pressure (0.3 mg/kg p.o., 0 hours after substance administration): 138.7 mmHg | mean blood pressure (0.3 mg/kg p.o., 1 hours after substance administration): 116.3 mmHg | mean blood pressure (0.3 mg/kg p.o., 2 hours after substance administration): 106.8 mmHg | mean blood pressure (0.3 mg/kg p.o., 3 hours after substance administration): 107.2 mmHg | mean blood pressure (0.3 mg/kg p.o., 4 hours after substance administration): 105.5 mmHg | mean blood pressure (0.3 mg/kg p.o., 5 hours after substance administration): 106.2 mmHg | mean blood pressure (0.3 mg/kg p.o., 6 hours after substance administration): 106.8 mmHg | mean blood pressure (0.3 mg/kg p.o., 7 hours after substance administration): 101.7 mmHg | mean blood pressure (0.3 mg/kg p.o., 8 hours after substance administration): 111.3 mmHg | mean blood pressure (0.3 mg/kg p.o., 9 hours after substance administration): 109.0 mmHg | mean blood pressure (0.3 mg/kg p.o., 10 hours after substance administration): 113.3 mmHg | mean blood pressure (0.3 mg/kg p.o., 11 hours after substance administration): 114.8 mmHg | mean blood pressure (0.3 mg/kg p.o., 12 hours after substance administration): 112.0 mmHg | mean blood pressure (0.3 mg/kg p.o., 13 hours after substance administration): 117.2 mmHg | mean blood pressure (0.3 mg/kg p.o., 14 hours after substance administration): 115.7 mmHg | mean blood pressure (0.3 mg/kg p.o., 15 hours after substance administration): 117.8 mmHg | mean blood pressure (0.3 mg/kg p.o., 16 hours after substance administration): 111.5 mmHg | mean blood pressure (0.3 mg/kg p.o., 17 hours after substance administration): 121.7 mmHg | mean blood pressure (0.3 mg/kg p.o., 18 hours after substance administration): 132.3 mmHg | mean blood pressure (0.3 mg/kg p.o., 19 hours after substance administration): 117.0 mmHg | mean blood pressure (0.3 mg/kg p.o., 20 hours after substance administration): 110.7 mmHg | mean blood pressure (0.3 mg/kg p.o., 21 hours after substance administration): 124.0 mmHg | mean blood pressure (0.3 mg/kg p.o., 22 hours after substance administration): 125.5 mmHg | mean blood pressure (0.3 mg/kg p.o., 23 hours after substance administration): 139.0 mmHg | mean blood pressure (0.3 mg/kg p.o., 24 hours after substance administration): 150.5 mmHg
